By IC50 is commonly meant the concentration at which inhibition is half-maximal.

Sequence of Beta-galactosidase (Q8VNN2 whole entry): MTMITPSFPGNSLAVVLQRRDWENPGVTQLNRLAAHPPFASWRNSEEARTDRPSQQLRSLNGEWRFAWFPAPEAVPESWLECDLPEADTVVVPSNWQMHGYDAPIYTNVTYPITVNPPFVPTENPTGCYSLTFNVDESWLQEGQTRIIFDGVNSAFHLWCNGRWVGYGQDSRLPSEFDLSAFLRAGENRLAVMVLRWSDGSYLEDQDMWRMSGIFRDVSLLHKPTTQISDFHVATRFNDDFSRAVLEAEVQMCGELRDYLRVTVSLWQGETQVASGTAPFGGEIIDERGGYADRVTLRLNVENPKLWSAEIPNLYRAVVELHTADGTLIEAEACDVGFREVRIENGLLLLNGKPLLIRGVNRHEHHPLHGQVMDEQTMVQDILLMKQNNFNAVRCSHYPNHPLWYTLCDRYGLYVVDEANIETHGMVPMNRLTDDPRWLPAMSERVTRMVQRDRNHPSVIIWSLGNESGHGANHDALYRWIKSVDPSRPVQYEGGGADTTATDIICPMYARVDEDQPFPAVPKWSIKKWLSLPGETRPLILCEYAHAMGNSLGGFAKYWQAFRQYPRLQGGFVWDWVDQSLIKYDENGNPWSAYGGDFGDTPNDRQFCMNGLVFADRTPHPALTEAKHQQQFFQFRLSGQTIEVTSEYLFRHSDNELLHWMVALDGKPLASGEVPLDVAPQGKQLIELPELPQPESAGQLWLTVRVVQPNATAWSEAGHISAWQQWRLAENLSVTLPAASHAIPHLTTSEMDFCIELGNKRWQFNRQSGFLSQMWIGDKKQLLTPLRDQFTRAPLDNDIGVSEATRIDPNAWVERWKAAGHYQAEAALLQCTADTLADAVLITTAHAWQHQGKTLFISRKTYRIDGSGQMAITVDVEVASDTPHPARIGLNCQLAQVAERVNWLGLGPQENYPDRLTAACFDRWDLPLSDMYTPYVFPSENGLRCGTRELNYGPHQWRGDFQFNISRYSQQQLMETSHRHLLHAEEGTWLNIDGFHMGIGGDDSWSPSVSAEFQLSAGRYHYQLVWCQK

This test addresses Beta-galactosidase (Escherichia coli, UniProt Q8VNN2). The experiment in a line: beta-galactosidase enzyme inhibitors and activators, dose response, artefact control for CCR6 antagonist project, biochemical, E. coli enzyme, set 3 (AID 504712).
`Cc1cc2nc(-n3c(O)c[nH]c3=S)sc2cc1C` [SMR000272190] had a 50% inhibitory concentration (IC50) of more than 66.6 µM. Compound `C=CCSC(N)=NN=CC1C=C(Br)C=C([N+](=O)[O-])C1=O` (stereo not drawn) [N''-[[(E)-(3-bromo-5-nitro-6-oxo-1-cyclohexa-2,4-dienylidene)methyl]amino]carbamimidothioic acid prop-2-enyl ester] had a concentration for half-maximal inhibition (IC50) of more than 66.6 µM. The value for `N#CC(=C1C=CC(N=O)C(Cl)=C1)c1ccc(Cl)cc1` (stereo not drawn) [SMR001570423] was more than 66.6 µM; that for `O=C1C(O)=CC=CC1CN=Nc1ccc([N+](=O)[O-])cc1` (stereo not drawn) [MLS001207776] was more than 66.6 µM. `O=C1C(/C=N/c2ccc(N3CCOCC3)cc2)=CC(Cc2ccccc2)C=C1[N+](=O)[O-]` (stereo not drawn) [SMR000231104] returned an IC50 of more than 66.6 µM.

In turn, `CC(N=Nc1ccc2ccccc2n1)c1ccccc1O` (stereo not drawn) [(6Z)-6-[1-[N'-(2-quinolyl)hydrazino]ethylidene]cyclohexa-2,4-dien-1-one] displayed an IC50 of more than 66.6 µM. The value for `C=CCOc1ccc(CN=Nc2ccc(S(=O)(=O)Nc3ccccc3C(=O)O)cc2[N+](=O)[O-])cc1OC` [2-[[4-[2-[(3-methoxy-4-prop-2-enoxy-phenyl)methylidene]hydrazinyl]-3-nitro-phenyl]sulfonylamino]benzoic acid] was more than 66.6 µM; that for `CC(C)(C)C1CCC(=NNC(=S)NCc2ccccc2)CC1` (stereo not drawn) [SMR000377499] was more than 66.6 µM.

For the compound `Cc1c(NN=C2C(=O)CC(C)(C)CC2=O)c(=O)n(-c2ccccc2)n1C` [2-[(1,5-dimethyl-3-oxidanylidene-2-phenyl-pyrazol-4-yl)hydrazinylidene]-5,5-dimethyl-cyclohexane-1,3-dione], the IC50 is more than 66.6 µM. The same measure for `O=C1C([N+](=O)[O-])=CC(Cl)=CC1CN=Nc1ccccn1` (stereo not drawn) [MLS000539830]: more than 66.6 µM; for `COc1cccc(CN=Nc2nc(Nc3ccccc3)nc(-n3nc(C)cc3C)n2)c1O` [(6E)-6-[[2-[4-(3,5-dimethylpyrazol-1-yl)-6-phenylazanyl-1,3,5-triazin-2-yl]hydrazinyl]methylidene]-2-methoxy-cyclohexa-2,4-dien-1-one]: more than 66.6 µM. The value for `O=Nc1c(C2C(=O)Nc3cc(Br)ccc32)[nH]c2ccccc12` (stereo not drawn) [6-bromoindirubin-3-oxime] was 40.8 µM; that for `O=C(O)c1ccc(N=NC=CCc2ccc([N+](=O)[O-])o2)cc1` [SMR000590759] was 33 µM. The value for `CCOc1ccc(CN=Nc2ccc(S(=O)(=O)Nc3ccccc3C(=O)O)cc2[N+](=O)[O-])cc1` was more than 66.6 µM; that for `O=C(NN=CC1C=C([N+](=O)[O-])C=CC1=O)Nc1ccccc1` (stereo not drawn) [MLS000713965] was more than 66.6 µM. Take `Oc1cc(Sc2nnnn2-c2ccccc2)c(O)n1-c1cccc(Cl)c1`: the IC50 is more than 66.6 µM. The same measure for `CCOC1=CC(=Cc2c(-c3ccccc3)[nH]n(-c3nc(-c4ccc(Br)cc4)cs3)c2=O)C=CC1=O`: more than 66.6 µM; for `CCCC1CCC(=NNC(=S)NCCc2ccccc2)CC1` (stereo not drawn) [SMR000347544]: more than 66.6 µM. The same measure for `O=C1Nc2ccc([N+](=O)[O-])cc2/C1=N/NC(=O)c1cc(-c2ccccc2Cl)nc2ccccc12` [2-(2-chlorophenyl)-N'-(2-keto-5-nitro-indol-3-yl)cinchoninohydrazide]: more than 66.6 µM; for `Cc1ccc2nc(-n3c(O)c[nH]c3=S)sc2c1`: more than 66.6 µM; for `C=c1c(O)c(O)cc2c1=CC=C1[C@@]2(C)CC[C@@]2(C)[C@@H]3C[C@](C)(C(=O)O)CC[C@]3(C)CC[C@]12C`: more than 66.6 µM.

The compound `CN(C)c1nc(N=NCc2ccccc2O)nc(Nc2ccc(F)cc2)n1` [(6E)-6-[[2-[4-(dimethylamino)-6-(4-fluoroanilino)-1,3,5-triazin-2-yl]hydrazinyl]methylidene]cyclohexa-2,4-dien-1-one] displayed an IC50 of more than 66.6 µM. The same measure for `O=C1C([N+](=O)[O-])=CC=CC1CN=Nc1ccc2ccccc2n1` (stereo not drawn) [(6E)-2-nitro-6-[(2-quinolin-2-ylhydrazinyl)methylidene]cyclohexa-2,4-dien-1-one]: more than 66.6 µM; for `O=C1C=CC([N+](=O)[O-])=CC1CN=Nc1ccccn1` (stereo not drawn) [MLS000585015]: more than 66.6 µM; for `CN1C(=O)C(C2CC(c3ccc(Cl)cc3)N=N2)C(=O)N(C)C1=O` (stereo not drawn) [SMR000439471]: more than 66.6 µM. The value for `Oc1c(Cl)c(N=CCc2ccccc2)c(O)c2ccccc12` [MLS002608293] was more than 66.6 µM; that for `COc1ccc(-n2c(O)cc(Sc3nnc(-c4ccccc4)o3)c2O)cc1` [1-(4-methoxyphenyl)-3-[(5-phenyl-1,3,4-oxadiazol-2-yl)thio]pyrrolidine-2,5-dione] was more than 66.6 µM; that for `COc1ccc(-n2c(O)c(CN=Nc3nc(C)cc(C)n3)c3ccccc3c2=O)cc1OC` [SMR000385482] was more than 66.6 µM.

In turn, `CC1=NN(c2ccccc2)C(=O)/C1=C/NN1C(=O)c2ccc3c4c(ccc(c24)C1=O)CC3` [SMR000171439] gave an IC50 of more than 66.6 µM. `Cc1cc(N=NCc2ccc(F)cc2)nc(-n2nc(C)cc2C)n1` [SMR000426945] yielded a 50% inhibitory concentration (IC50) of more than 66.6 µM. The same measure for `Cc1cc(C)nc(NNC=C2C(=O)CC(c3ccc(F)cc3)CC2=O)n1` (stereo not drawn): more than 66.6 µM. The same measure for `O=C1C=CC=CC1CN=Nc1ccc([N+](=O)[O-])cn1` (stereo not drawn) [MLS002608402]: 46 µM. The same measure for `Cc1cc(C)cc(-n2c(O)cc(Sc3nnnn3-c3ccccc3)c2O)c1` [1-(3,5-dimethylphenyl)-3-(1-phenyltetrazol-5-yl)sulfanylpyrrolidine-2,5-dione]: more than 66.6 µM; for `Oc1ccccc1-c1nnc(Sc2cc(O)n(-c3ccccc3)c2O)o1` [3-[[(2Z)-2-(6-oxo-1-cyclohexa-2,4-dienylidene)-3H-1,3,4-oxadiazol-5-yl]thio]-1-phenylpyrrolidine-2,5-dione]: more than 66.6 µM; for `Oc1cc(Sc2nnnn2C2CCCCC2)c(O)n1-c1ccccc1` [3-[(1-cyclohexyl-1,2,3,4-tetrazol-5-yl)sulfanyl]-1-phenyl-pyrrolidine-2,5-dione]: more than 66.6 µM. Turning to `C/C=C(\C)C(=O)OC1[C@H](OC(C)=O)C2(CO)C(CC1(C)C)C1=CCC3C4(C)CCC(O[C@@H]5O[C@H](C(=O)O)[C@@H](O[C@@H]6O[C@H](CO)[C@@H](O)[C@H](O)[C@H]6O)[C@H](O)[C@H]5O[C@H]5O[C@H](CO)[C@@H](O)[C@H](O)[C@H]5O)[C@](C)(CO)C4CCC3(C)[C@]1(C)C[C@H]2O` (stereo partly drawn) [MLS002695979], the IC50 is more than 66.6 µM.

The compound `CN1C(=O)/C(=C2/C(=O)Nc3ccccc32)NC1=S` [SMR000198608] yielded an IC50 of more than 66.6 µM.

The compound `CC(NO)C(=O)C(=CN1CCCCC1)CN1CCCCC1` (stereo not drawn) displayed an IC50 of more than 66.6 µM.

`COC1=CC=CC(CN=Nc2nc(Nc3ccc([N+](=O)[O-])cc3)nc(N3CCCC3)n2)C1=O` (stereo not drawn) [2-hydroxy-3-methoxybenzaldehyde {4-[(4-nitrophenyl)amino]-6-pyrrolidin-1-yl-1,3,5-triazin-2-yl}hydrazone] returned an IC50 of more than 66.6 µM.

Compound `O=C1C=CC([N+](=O)[O-])=CC1CN=Nc1nnn[nH]1` (stereo not drawn) came in with a concentration for half-maximal inhibition (IC50) of more than 66.6 µM. The same measure for `CCOc1ccc(CN=Nc2ccc(S(=O)(=O)Nc3ccccc3C(=O)O)cc2[N+](=O)[O-])cc1OC` [SMR001308940]: more than 66.6 µM; for `Cc1ccccc1-n1c(O)cc(Sc2nnc(-c3ccccc3)o2)c1O` [1-(2-methylphenyl)-3-[(5-phenyl-1,3,4-oxadiazol-2-yl)sulfanyl]pyrrolidine-2,5-dione]: more than 66.6 µM. The value for `CCOc1ccc(-n2c(O)cc(Sc3nnnn3-c3ccccc3)c2O)cc1` [SMR000271658] was more than 66.6 µM.

Values taken from BindingDB's records for doi:10.7270/Q2NG4P4X (Burnham Center For Chemical Genomics, 2011).
